Source: US11384055B2 (BIOMARIN PHARMACEUTICAL INC., priority 2017, dated 2022)

Molecular target: T1, Human GO (Homo sapiens, UniProt Q9UJM8)
T1 construct: purchased Novus Biologicals NBP1-72412
T1 sequence (Q9UJM8 1-370): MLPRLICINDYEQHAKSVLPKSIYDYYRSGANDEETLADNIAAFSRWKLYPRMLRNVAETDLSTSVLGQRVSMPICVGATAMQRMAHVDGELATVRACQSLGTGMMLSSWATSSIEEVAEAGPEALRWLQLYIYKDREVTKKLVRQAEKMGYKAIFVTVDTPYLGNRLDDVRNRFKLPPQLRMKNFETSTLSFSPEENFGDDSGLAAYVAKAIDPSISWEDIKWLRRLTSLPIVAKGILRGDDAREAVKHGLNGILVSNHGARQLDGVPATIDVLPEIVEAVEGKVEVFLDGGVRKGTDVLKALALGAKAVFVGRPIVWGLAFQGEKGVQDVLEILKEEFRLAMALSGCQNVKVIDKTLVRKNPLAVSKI
Assay: GO enzymatic assay (coupled fluorescence/HRP assay, glycolate substrate)
Type: biochemical
Conditions: not given
Description: Assay 1: GO Enzymatic Assay
GO was incubated with its substrate, glycolate, in 50 mM potassium phosphate buffer, pH 7. […] The enzyme was optimized and the kinetics was determined.
Compound inhibition was determined by adding various concentrations of inhibitors in the GO enzyme assay. The IC50 value for each measured compound was generated from sigmoidal dose-response (variable slope) curves with GraphPad Prism software (GraphPad Software, Inc., San Diego, Calif.) using the percent inhibition of GO activity relative to DMSO control.

Row | IC50 | SMILES
1 | < 100 nM | O=C(O)c1[nH]nnc1Sc1ccc(Cl)c(Cl)c1 [Compound 41, 4-((3,4-dichlorophenyl)thio)-1H-1,2,3-triazole-5-carboxylic acid]

Same assay, conditions: Table 1; read-out: Range (range of IC50 values calculated from the enzymatic assays)

Row | IC50 | SMILES
2 | < 100 nM | O=C(O)c1[nH]nnc1Sc1ccc(-c2ccc(OC(F)(F)F)c(Cl)c2)cc1 [Compound 32, 4-((3′-chloro-4′-(trifluoromethoxy)-[1,1′-biphenyl]-4-yl)thio)-1H-1,2,3-triazole-5-carboxylic acid]
3 | > 10000 nM | COC(=O)c1[nH]nnc1Sc1ccc(-c2ccc(OC(F)(F)F)cc2)cc1 [Compound 33, methyl 4-((4′-(trifluoromethoxy)-[1,1′-biphenyl]-4-yl)thio)-1H-1,2,3-triazole-5-carboxylate]
4 | > 10000 nM | CN(C)CCOC(=O)c1[nH]nnc1Sc1ccc(-c2ccc(OC(F)(F)F)cc2)cc1 [Compound 37, 2-(dimethylamino)ethyl 4-((4′-(trifluoromethoxy)-[1,1′-biphenyl]-4-yl)thio)-1H-1,2,3-triazole-5-carboxylate]
5 | < 100 nM | O=C(O)c1[nH]nnc1Sc1csc(-c2ccc(OC(F)(F)F)c(Cl)c2)n1 [Compound 39, 4-((2-(3-chloro-4-(trifluoromethoxy)phenyl)thiazol-4-yl)thio)-1H-1,2,3-triazole-5-carboxylic acid]
6 | > 10000 nM | COC(=O)c1[nH]nnc1Sc1csc(-c2ccc(OC(F)(F)F)c(Cl)c2)n1 [Compound 40, methyl 4-((2-(3-chloro-4-(trifluoromethoxy)phenyl)thiazol-4-yl)thio)-1H-1,2,3-triazole-5-carboxylate]
7 | < 100 nM | O=C(O)c1[nH]nnc1Sc1cccc(-c2ccc(OC(F)(F)F)cc2)c1 [Compound 42, 4-((4′-(trifluoromethoxy)-[1,1′-biphenyl]-3-yl)thio)-1H-1,2,3-triazole-5-carboxylic acid]
8 | < 100 nM | O=C(O)c1[nH]nnc1Sc1nc(-c2ccc(OC(F)(F)F)c(Cl)c2)cs1 [Compound 43, 4-((4-(3-chloro-4-(trifluoromethoxy)phenyl)thiazol-2-yl)thio)-1H-1,2,3-triazole-5-carboxylic acid]
9 | > 10000 nM | COC(=O)c1[nH]nnc1Sc1nc(-c2ccc(OC(F)(F)F)c(Cl)c2)cs1 [Compound 44, methyl 4-((4-(3-chloro-4-(trifluoromethoxy)phenyl)thiazol-2-yl)thio)-1H-1,2,3-triazole-5-carboxylate]
10 | 1000 to 10000 nM | O=C(OC1COC1)c1[nH]nnc1Sc1ccc(-c2ccc(OC(F)(F)F)cc2)cc1 [Compound 45, oxetan-3-yl 4-((4′-(trifluoromethoxy)-[1,1′-biphenyl]-4-yl)thio)-1H-1,2,3-triazole-5-carboxylate]
11 | < 100 nM | O=C(O)c1[nH]nnc1Sc1ccc(-c2ccc(Cl)cc2)c(Cl)c1 [Compound 47, 4-((2,4′-dichloro-[1,1′-biphenyl]-4-yl)thio)-1H-1,2,3-triazole-5-carboxylic acid]
12 | < 100 nM | O=C(O)c1[nH]nnc1Sc1ccc(-c2ccc(Cl)cc2)cc1Cl [Compound 48, 4-((3,4′-dichloro-[1,1′-biphenyl]-4-yl)thio)-1H-1,2,3-triazole-5-carboxylic acid]
13 | 1000 to 10000 nM | CC(C)(C)C(=O)OCOC(=O)c1[nH]nnc1Sc1ccc(-c2ccc(OC(F)(F)F)cc2)cc1 [Compound 54, (pivaloyloxy)methyl 4-((4′-(trifluoromethoxy)-[1,1′-biphenyl]-4-yl)thio)-1H-1,2,3-triazole-5-carboxylate]
14 | 100 to 1000 nM | CC(C)C(=O)OCOC(=O)c1[nH]nnc1Sc1ccc(-c2ccc(OC(F)(F)F)cc2)cc1 [Compound 55, (isobutyryloxy)methyl 4-((4′-(trifluoromethoxy)-[1,1′-biphenyl]-4-yl)thio)-1H-1,2,3-triazole-5-carboxylate]
15 | < 100 nM | O=C(O)c1[nH]nnc1Nc1ccc(-c2ccc(Cl)c(Cl)c2)cc1 [Compound 60, 4-((3′,4′-dichloro-[1,1′-biphenyl]-4-yl)amino)-1H-1,2,3-triazole-5-carboxylic acid]

The remaining lines, values behind:

Row | SMILES | IC50
16 | CCCCOc1ccc2sc(Sc3nn[nH]c3C(=O)O)nc2c1 [Compound 34, 4-((5-butoxybenzo[d]thiazol-2-yl)thio)-1H-1,2,3-triazole-5-carboxylic acid] | 100 to 1000 nM
17 | Cn1c(Sc2nn[nH]c2C(=O)O)cnc1-c1ccc(Cl)c(Cl)c1 [Compound 35, 4-((2-(3,4-dichlorophenyl)-1-methyl-1H-imidazol-5-yl)thio)-1H-1,2,3-triazole-5-carboxylic acid 2,2,2-trifluoroacetate] | 100 to 1000 nM
18 | O=C(O)c1[nH]nnc1Sc1csc(-c2ccc(Cl)c(Cl)c2)c1 [Compound 36, 4-((5-(3,4-dichlorophenyl)thiophen-3-yl)thio)-1H-1,2,3-triazole-5-carboxylic acid] | < 100 nM
19 | O=C(O)c1[nH]nnc1Sc1ccc2cc(Cl)ccc2n1 [Compound 46, 4-((6-chloroquinolin-2-yl)thio)-1H-1,2,3-triazole-5-carboxylic acid] | 100 to 1000 nM
20 | O=C(O)c1[nH]nnc1Sc1ccc(F)c(F)c1 [Compound 49, 4-((3,4-difluorophenyl)thio)-1H-1,2,3-triazole-5-carboxylic acid] | < 100 nM
21 | O=C(O)c1[nH]nnc1Sc1ccc2c(c1)CCCC2 [Compound 50, 4-((5,6,7,8-tetrahydronaphthalen-2-yl)thio)-1H-1,2,3-triazole-5-carboxylic acid] | < 100 nM
22 | CC(C)(C)C(=O)OCn1nnc(Sc2ccc(-c3ccc(OC(F)(F)F)cc3)cc2)c1C(=O)O [Compound 51, 1-((pivaloyloxy)methyl)-4-((4′-(trifluoromethoxy)-[1,1′-biphenyl]-4-yl)thio)-1H-1,2,3-triazole-5-carboxylic acid] | 100 to 1000 nM
23 | CC(C)C(=O)OCn1nnc(Sc2ccc(-c3ccc(OC(F)(F)F)cc3)cc2)c1C(=O)O [Compound 52, 1-((isobutyryloxy)methyl)-4-((4′-(trifluoromethoxy)-[1,1′-biphenyl]-4-yl)thio)-1H-1,2,3-triazole-5-carboxylic acid] | 100 to 1000 nM
24 | O=C(O)c1[nH]nnc1Sc1ccc2ncsc2c1 [Compound 53, 4-(benzo[d]thiazol-6-ylthio)-1H-1,2,3-triazole-5-carboxylic acid 2,2,2-trifluoroacetate] | < 100 nM
25 | O=C(O)c1[nH]nnc1Sc1ccc2cc(Cl)ccc2c1 [Compound 56, 4-((6-chloronaphthalen-2-yl)thio)-1H-1,2,3-triazole-5-carboxylic acid] | < 100 nM
26 | O=C(O)c1[nH]nnc1SC1Cc2cc(Cl)c(Cl)cc2C1 [Compound 57, 4-((5,6-dichloro-2,3-dihydro-1H-inden-2-yl)thio)-1H-1,2,3-triazole-5-carboxylic 2,2,2-trifluoroacetate] | < 100 nM
27 | CCOC(=O)c1[nH]nnc1Nc1ccc(-c2ccc(Cl)cc2)cc1 [Compound 58-1, ethyl 4-((4′-chloro-[1,1′-biphenyl]-4-yl)amino)-1H-1,2,3-triazole-5-carboxylate] | > 10000 nM
28 | O=C(O)c1[nH]nnc1Nc1ccc(-c2ccc(Cl)cc2)cc1 [Compound 58-2, 4-((4′-chloro-[1,1′-biphenyl]-4-yl)amino)-1H-1,2,3-triazole-5-carboxylic acid] | < 100 nM
29 | O=C(O)c1[nH]nnc1Nc1nc(-c2ccc(Cl)c(Cl)c2)cs1 [Compound 59, 4-((4-(3,4-dichlorophenyl)thiazol-2-yl)amino)-1H-1,2,3-triazole-5-carboxylic acid] | < 100 nM
